Experiments:
Format in all cases: cell-based
Hep G2 = experiment: In vitro growth inhibition of Hep G2 cells; conditions: Homo sapiens, HepG2, FGFR3+++, FGFR4 +++
Procedure: (§1) Adherent cells were digested with 0.25% trypsin-EDTA (Gibco). Suspension culture cells were collected by centrifugation (1700 rpm, 3 minutes). The supernatant was discarded and the cells were counted. According to each cell growth cycle, different concentrations of cells were prepared (5˜10×10^4 cells per ml), and inoculated to 96-well plates (Corning), with 100 μl per well, and incubated overnight at 37° C., 5% CO2. The next day, the test compound was added to the cultured cells (2 wells in parallel). The final concentration of the solvent was less than 1/1,000. The cells were further cultured for 3 to 5 days and assayed by MTT.
(§2) The MTT test reagent was a Dojindo CCK8 kit and the Microplate Reader was a THERMO […] FC instrument.
(§3) The adherent cells were taken out from the cell culture medium, and immediately added to a freshly prepared complete medium containing 10% CCK8 (5% FBS), 100 ul per hole. The suspended cells were directly added to a CCK8 reagent until reaching a final concentration of 10% and cultured for 1 to 4 hours. When a dark yellow color could be observed in the solvent control wells, the absorbance value at OD450 nm was measured and the cell growth rate was calculated according to the following formula: Cell Growth Rate (%)=100×(T−T0)/(C−T0)
(§4) T=optical density of drug-treated cell wells−optical density of blank control wells; T0=optical density of cell wells before drug treatment−optical density of blank control wells; C=optical density of solvent control wells−optical density of blank control wells. […] The experiments were repeated 1 to 3 times and a statistical analysis of data was conducted.
(§5) Mutations in the FGFR1-4 gene often occur in different types of cancer patients. In order to test the growth inhibition activity of the present compound against tumor cells expressing different FGFR variants, tumor cell lines expressing representative FGFR1-4 were selected for further determining the activity of compounds 25, 66, 38 and 95 of the present invention. BGJ398, a selective inhibitor of FGFR1-4, was used as the control compound. The specific test method is the same as test example 1.

RS4:11 = experiment: In vitro growth inhibition of FLT3 wild type overexpressing cells RS4:11; conditions: Homo sapiens, cells over expressing FLT3 wild-type
Procedure: as §1, §2, §3, §4
(§6) The present compounds which has a high growth inhibition activity on tumor cells positive expressing FLT3-ITD were selected for the determination of IC50 concentration on FLT3 wild tyoverexpressing cells RS4:11 and FLT3 wild-type normal expressing cells Jurkat. The specific test method is the same as that of test example 1.

MDA-MB-453 = experiment: In vitro growth inhibition of MDA-MB-453 cells; conditions: Homo sapiens, PI3KCA H1047R, FGFR4+++/Y367C
Procedure: as §1, §2, §3, §4, §5

JIMT-1 = experiment: In vitro growth inhibition of JIMT-1 cells; conditions: Homo sapiens, FGFR1 amp, HER2 amp, PI3KCA C420R
Procedure: as §1, §2, §3, §4, §5

SW48 = experiment: In vitro growth inhibition of PI3KCA amplified/mutant tumor cells SW48; conditions: Homo sapiens; SW48; PI3KCA G914R; EGFR G719S; read-out: IC50 growth inhibition
Procedure: as §1, with “Suspension” for “Adherent cells were digested with 0.25% trypsin-EDTA (Gibco). Suspension”
The adherent cells were taken out from the cell culture medium, and immediately added to a freshly prepared complete medium containing 10% CCK8 (5% FBS), 100 ul per hole. The suspended cells were directly added to a CCK8 reagent until reaching a final concentration of 10% and cultured for 1 to 4 hours.
as §4

Jurkat = experiment: In vitro growth inhibition of FLT3 wild-type normal expressing cells Jurkat; conditions: Homo sapiens, cells normally expressing FLT3 wild-type
Procedure: as §1, §2, §3, §4, §6

MFM-223 = experiment: In vitro growth inhibition of MFM-223 cells; conditions: Homo sapiens, PI3KCA H1047R, FGFR1 amp, FGFR2 amp
Procedure: as §1, §2, §3, §4, §5

[1] = system: human intestinal cancer cell line HCT116 (KRAS G13D mutation); experiment: Growth inhibition in combination with MEK1/2 inhibitor Trametinib, HCT116 (KRAS G13D mutation); conditions: 5 days
Procedure: Test Example 5 Synergistic Inhibition Effect of the Present Compounds in Combination with MEK1/2 Inhibitor on the Growth of RAS Mutant Tumor Cells In Vitro
The cell culture, drug treatment and MTT assay of human intestinal cancer cell line HCT116 (KRAS G13D mutation) and human non-small cell lung cancer cell line NCI-H1299 (NRAS Q61K mutation) were performed according to the method of test example 1. Cells were treated with the MEK1/2 inhibitor Trametinib at 25 nM, 2.5 nM and 0.25 nM alone or in combination with compound 66 or 125 of the present invention (5 days).

Row | IC50 (RS4:11) [nM] | IC50 (MDA-MB-453) [nM] | IC50 (SW48) [nM] | Structure (SMILES) | IC50 (Hep G2) [nM] | IC50 (JIMT-1) [nM] | IC50 (Jurkat) [nM] | IC50 (MFM-223) [nM] | inhibition at 0.0078 µM ([1]; Homo sapiens, HCT-116, 120 h, compound 7.8 nM alone (solvent instead of Trametinib), read-out: cell growth inhibition (percentage)) [%] | inhibition at 0.0156 µM ([1]; Homo sapiens, HCT-116, 120 h, compound 15.6 nM alone (solvent instead of Trametinib), read-out: cell growth inhibition (percentage)) [%] | cell growth inhibition (percentage) ([1]; compound 7.8 nM + Trametinib 0.25 nM) [%] | cell growth inhibition (percentage) ([1]; compound 7.8 nM + Trametinib 2.5 nM) [%] | cell growth inhibition (percentage) ([1]; compound 7.8 nM + Trametinib 25 nM) [%] | cell growth inhibition (percentage) ([1]; compound 15.6 nM + Trametinib 0.25 nM) [%] | cell growth inhibition (percentage) ([1]; compound 15.6 nM + Trametinib 2.5 nM) [%] | cell growth inhibition (percentage) ([1]; compound 15.6 nM + Trametinib 25 nM) [%]
1 | 65.8 | 19.8 | 13.6 | COc1cc2nccc(Oc3ccc(NC(=O)Nc4cc(C(C)(C)C)nn4C)c(Cl)c3Cl)c2cc1C(N)=O [Compound 38, 4-{4-[3-(5-tert-butyl-2-methyl-2H-pyrazol-3-yl)-ureido]-2,3-dichloro-phenoxy}-7-methoxyquinolin-6-carboxamide] | 119 | 19.1 | 202 | 14.9 |  |  |  |  |  |  |  | 
2 | 523 | 19.3 | 28.2 | COCCOc1cc2nccc(Oc3ccc(NC(=O)Nc4cc(C(C)(C)C)n[nH]4)c(Cl)c3)c2cc1NC(C)=O [Compound 66, N-[4-{4-[3-(5-tert-butyl-2H-pyrazol-3-yl)-ureido]-3-chloro-phenoxy}-7-(2-methoxy-ethoxy)-quinolin-6-yl]-acetamide] | 79.1 | 19.6 | 462 | 17.9 | 7.67 | 22 | 62.24 | 73.79 | 80.52 | 66.72 | 77.07 | 81.03
3 |  | 49.2 | 41.9 | CN1CCN(CCCOc2cc3nccc(Oc4ccc(NC(=O)Nc5cc(C(C)(C)C)n[nH]5)c(Cl)c4Cl)c3cc2C(N)=O)CC1 [Compound 95] | 128 | 20.6 |  | 32.6 |  |  |  |  |  |  |  | 

— US10800741B2 (ANCUREALL PHARMACEUTICAL (SHANGHAI) CO., LTD., priority 2017, dated 2020)
